Test results taken from ChEMBL document CHEMBL1201862, “PubChem BioAssay data set” (2004).
Active and inactive are the calls of the source.

Tests used:
[1] = target: Glyceraldehyde-3-phosphate dehydrogenase (Homo sapiens, UniProt P04406)
[2] = target: T1, Tyrosine-protein phosphatase non-receptor type 22 (Homo sapiens, UniProt Q9Y2R2); assay: SAR LYP1 Fluorescent Assay using OMFP substrate for In Vitro dose response studies - Set 3. [Related pubchem assays (depositor defined):AID1779, AID1784, AID2140, AID2686]; format: functional
T1 sequence (Q9Y2R2 whole entry): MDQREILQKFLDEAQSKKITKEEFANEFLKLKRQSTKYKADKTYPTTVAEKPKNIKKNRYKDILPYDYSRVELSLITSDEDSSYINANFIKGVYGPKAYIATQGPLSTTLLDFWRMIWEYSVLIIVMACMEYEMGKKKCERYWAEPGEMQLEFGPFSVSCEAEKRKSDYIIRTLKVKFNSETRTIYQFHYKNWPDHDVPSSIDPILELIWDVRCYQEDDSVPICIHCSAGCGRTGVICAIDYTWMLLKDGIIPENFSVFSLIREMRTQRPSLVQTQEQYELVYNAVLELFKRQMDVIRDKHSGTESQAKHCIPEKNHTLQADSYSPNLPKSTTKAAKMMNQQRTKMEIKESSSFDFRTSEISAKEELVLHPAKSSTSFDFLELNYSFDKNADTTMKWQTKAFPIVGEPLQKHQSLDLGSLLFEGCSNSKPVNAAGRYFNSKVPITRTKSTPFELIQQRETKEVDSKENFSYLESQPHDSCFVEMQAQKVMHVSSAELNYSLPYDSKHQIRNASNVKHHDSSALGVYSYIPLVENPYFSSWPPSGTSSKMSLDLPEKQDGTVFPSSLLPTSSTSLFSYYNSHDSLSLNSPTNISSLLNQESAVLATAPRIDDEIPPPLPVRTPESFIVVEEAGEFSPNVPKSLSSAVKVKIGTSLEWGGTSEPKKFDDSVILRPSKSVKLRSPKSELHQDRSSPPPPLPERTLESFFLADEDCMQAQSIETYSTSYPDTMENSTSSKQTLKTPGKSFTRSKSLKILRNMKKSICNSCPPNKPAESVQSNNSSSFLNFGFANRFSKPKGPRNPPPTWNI

[3] = target: Tyrosine-protein phosphatase non-receptor type 12 (Homo sapiens, UniProt Q05209); assay: SAR Selectivity Analysis of small molecule inhibitors of PEST using pCAP in a fluorescence assay. [Related pubchem assays (depositor defined):AID1779, AID1784, AID2135]; format: functional
[4] = target: T1, Tyrosine-protein phosphatase non-receptor type 22; assay: inhibition of lymphoid tyrosine phosphatase LYP – biochemical, pCAP fluorogenic substrate, fluorescence, set 3, SAR follow-up (AID 449727); format: functional
[5] = target: Intestinal-type alkaline phosphatase (Mus musculus, UniProt P24822); assay: mouse intestinal alkaline phosphatase activators, dose response, biochemical, luminescence, uHTS hits (AID 488783); format: functional
[6] = target: T2, Alkaline phosphatase, tissue-nonspecific isozyme (Homo sapiens, UniProt P05186); assay: activation of tissue-nonspecific alkaline phosphatase – biochemical, TNAP isozyme, mouse IAP uHTS hits, selectivity assay for mouse IAP activator project, dose response (AID 488880); format: functional
T2 sequence (P05186 whole entry): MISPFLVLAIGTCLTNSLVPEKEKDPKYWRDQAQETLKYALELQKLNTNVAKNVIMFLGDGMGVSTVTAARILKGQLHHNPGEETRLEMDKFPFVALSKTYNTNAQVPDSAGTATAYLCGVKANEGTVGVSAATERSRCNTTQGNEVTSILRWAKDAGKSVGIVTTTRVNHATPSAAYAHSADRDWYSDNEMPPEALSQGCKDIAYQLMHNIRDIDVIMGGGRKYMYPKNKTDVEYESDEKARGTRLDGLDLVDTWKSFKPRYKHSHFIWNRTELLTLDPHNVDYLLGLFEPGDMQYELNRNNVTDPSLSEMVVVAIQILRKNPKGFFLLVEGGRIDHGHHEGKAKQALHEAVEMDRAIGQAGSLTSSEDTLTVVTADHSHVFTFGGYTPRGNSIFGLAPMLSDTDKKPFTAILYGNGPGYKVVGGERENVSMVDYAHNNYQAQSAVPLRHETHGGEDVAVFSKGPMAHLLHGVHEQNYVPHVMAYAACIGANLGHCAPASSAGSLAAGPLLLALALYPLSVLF

Phospholipase A2 = Phospholipase A2 (Homo sapiens, UniProt P04054); format: functional;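 note: confirmatory dose-response counterscreen on phospholipase A2, testing hits that came from an ultra-high-throughput screen for ATG4B inhibitors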
[7] = target: Intestinal-type alkaline phosphatase (Homo sapiens, UniProt P09923); assay: activation of human intestinal alkaline phosphatase – biochemical, dose response (AID 488873); format: functional
Cysteine protease ATG4B = target: T3, Cysteine protease ATG4B (Homo sapiens, UniProt Q9Y4P1); format: functional;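 note: Fluorescence-based dose-response confirmation assay measuring inhibition of ATG4B activity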
T3 sequence (Q9Y4P1 whole entry): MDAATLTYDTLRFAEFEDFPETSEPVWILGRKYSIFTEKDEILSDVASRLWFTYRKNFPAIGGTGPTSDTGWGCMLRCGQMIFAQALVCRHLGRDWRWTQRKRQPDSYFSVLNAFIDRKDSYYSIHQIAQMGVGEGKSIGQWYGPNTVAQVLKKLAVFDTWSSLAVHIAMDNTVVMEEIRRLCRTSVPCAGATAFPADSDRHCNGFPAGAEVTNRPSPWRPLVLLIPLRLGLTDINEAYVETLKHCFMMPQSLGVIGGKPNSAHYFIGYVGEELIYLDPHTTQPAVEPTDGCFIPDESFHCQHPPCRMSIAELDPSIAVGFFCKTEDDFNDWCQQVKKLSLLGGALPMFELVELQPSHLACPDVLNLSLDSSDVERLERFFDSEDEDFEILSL

[8] = target: Bifunctional protein GlmU (Mycobacterium tuberculosis, UniProt P9WMN3); assay: Inhibitors of Mycobacterial Glucosamine-1-phosphate acetyl transferase (GlmU). Secondary screen.; design: species or system Mycobacterium tuberculosis H37Rv
Aminopeptidase N = target: T4, Aminopeptidase N (Plasmodium falciparum FcB1/Columbia, UniProt O96935); assay: malaria alanyl aminopeptidase activity blockers – biochemical, fluorogenic H-Leu-NHMec substrate, 1536-well (AID 1445); design: species or system Plasmodium falciparum 3D7, 3D7
T4 sequence (O96935 whole entry): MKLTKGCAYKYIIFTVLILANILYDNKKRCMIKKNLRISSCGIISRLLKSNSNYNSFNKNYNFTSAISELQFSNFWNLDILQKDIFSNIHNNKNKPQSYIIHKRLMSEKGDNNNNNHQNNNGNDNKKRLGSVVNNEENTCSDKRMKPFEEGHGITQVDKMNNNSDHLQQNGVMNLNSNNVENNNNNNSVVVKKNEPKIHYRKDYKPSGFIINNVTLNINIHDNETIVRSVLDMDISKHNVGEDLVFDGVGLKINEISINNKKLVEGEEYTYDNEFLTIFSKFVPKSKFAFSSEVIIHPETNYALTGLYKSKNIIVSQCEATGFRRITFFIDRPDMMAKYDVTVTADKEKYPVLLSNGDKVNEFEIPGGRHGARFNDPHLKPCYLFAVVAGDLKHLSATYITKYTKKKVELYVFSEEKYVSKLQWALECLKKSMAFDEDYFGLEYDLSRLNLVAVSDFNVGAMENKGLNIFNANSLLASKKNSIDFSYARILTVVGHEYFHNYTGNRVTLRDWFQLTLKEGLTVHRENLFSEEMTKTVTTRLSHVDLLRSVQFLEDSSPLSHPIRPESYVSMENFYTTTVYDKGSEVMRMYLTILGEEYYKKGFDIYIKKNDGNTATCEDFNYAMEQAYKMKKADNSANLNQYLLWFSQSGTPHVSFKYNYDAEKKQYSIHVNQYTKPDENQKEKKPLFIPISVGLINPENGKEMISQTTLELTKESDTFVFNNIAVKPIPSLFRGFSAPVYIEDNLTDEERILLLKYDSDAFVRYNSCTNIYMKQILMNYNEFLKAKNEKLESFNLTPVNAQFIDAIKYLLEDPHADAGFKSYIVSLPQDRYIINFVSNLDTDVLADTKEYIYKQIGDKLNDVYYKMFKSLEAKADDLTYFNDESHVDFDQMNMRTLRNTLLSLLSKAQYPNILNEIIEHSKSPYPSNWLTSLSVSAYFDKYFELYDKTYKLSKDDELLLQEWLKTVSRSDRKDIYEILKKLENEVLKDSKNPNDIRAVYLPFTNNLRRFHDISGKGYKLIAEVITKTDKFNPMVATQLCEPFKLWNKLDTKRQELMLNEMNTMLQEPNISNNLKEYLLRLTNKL

[9] = target: Likely tRNA 2'-phosphotransferase (Candida albicans (strain SC5314 / ATCC MYA-2876) (Yeast), UniProt Q5A7N4); assay: inhibition of Candida TPT1 enzyme activity – biochemical, fluorescence polarization, dose response (AID 2160)
HeLa = assay: viability loss in HeLa cells – cell-based, 24 h, cherry-picked samples, cytotoxicity control, dose response (AID 504726); format: functional; settings: Homo sapiens;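 note: potency for cytotoxicity as loss of luminescence signal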
[10] = target: Induced myeloid leukemia cell differentiation protein Mcl-1 (Homo sapiens, UniProt Q07820); format: functional
[11] = target: Guanyl-specific ribonuclease T1 (Aspergillus oryzae (strain ATCC 42149 / RIB 40), UniProt P00651); assay: inhibition of ribonuclease T1 activity – biochemical, fluorescence polarization, 1536-well, counter-screen for TPT1 inhibitor project, dose response (AID 2167)
[12] = target: T5, Calpain-2 catalytic subunit (Sus scrofa, UniProt P43367); assay: m-calpain protease blockers, concentration series – biochemical, fluorogenic peptide substrate, dose response (AID 1420); format: functional
T5 sequence (P43367 whole entry): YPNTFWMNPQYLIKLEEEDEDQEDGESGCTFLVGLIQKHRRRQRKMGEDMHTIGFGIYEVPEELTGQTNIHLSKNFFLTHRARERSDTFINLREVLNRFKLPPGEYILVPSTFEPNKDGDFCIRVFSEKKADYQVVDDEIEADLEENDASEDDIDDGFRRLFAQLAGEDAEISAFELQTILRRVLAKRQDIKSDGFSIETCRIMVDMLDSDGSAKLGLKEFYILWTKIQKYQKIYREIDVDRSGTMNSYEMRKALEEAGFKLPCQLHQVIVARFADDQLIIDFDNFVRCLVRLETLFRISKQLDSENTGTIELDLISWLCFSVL

ORF 73 = ORF 73 (Human herpesvirus 8, UniProt O40947); assay: KSHV LANA DNA-binding disruption – biochemical, fluorescence polarization, cherry-picked samples, dose response (AID 504725); design: species or system Human gammaherpesvirus 8;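 note: fluorescence polarization of a labeled DNA duplex reporting LANA DNA binding; potency is for inhibitors that block LANA binding to the DNA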
Large T antigen = Large T antigen (Simian virus 40, UniProt P03070); format: functional, Betapolyomavirus macacae;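 note: Confirmatory-stage PubChem screen for compounds that inhibit SV40 T antigen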
Trypsin = Trypsin (Sus scrofa, UniProt P00761); assay: trypsin protease activity blockade – biochemical, quenched peptide fluorescence, cherry-pick, selectivity assay for Rce1 protease inhibitor project, dose response (AID 488789)
Hexokinase = target: T6, Hexokinase (Trypanosoma brucei, UniProt Q38C41); assay: Confirmation assay for inhibitors of Trypanosoma brucei hexokinase 1-Analogue-first series. [Related pubchem assays (depositor defined):AID1430, AID1632, AID2516, AID2560, AID2579, AID2600, AID449725, AID492951]; format: functional
T6 sequence (Q38C41 whole entry): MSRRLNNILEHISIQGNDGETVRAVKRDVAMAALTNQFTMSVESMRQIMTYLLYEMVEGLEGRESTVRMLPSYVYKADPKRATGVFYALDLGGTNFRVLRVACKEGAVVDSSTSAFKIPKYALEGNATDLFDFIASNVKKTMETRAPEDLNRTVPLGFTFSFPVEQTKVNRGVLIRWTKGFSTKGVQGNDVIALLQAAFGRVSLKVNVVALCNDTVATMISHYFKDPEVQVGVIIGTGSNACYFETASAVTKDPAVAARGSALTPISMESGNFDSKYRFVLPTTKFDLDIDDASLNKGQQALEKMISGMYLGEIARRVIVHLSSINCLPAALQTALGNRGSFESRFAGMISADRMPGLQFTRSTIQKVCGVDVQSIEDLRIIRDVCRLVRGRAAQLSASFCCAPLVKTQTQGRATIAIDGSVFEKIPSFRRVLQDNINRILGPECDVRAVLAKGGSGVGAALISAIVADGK

Phosphomannomutase 2 = Phosphomannomutase 2 (Homo sapiens, UniProt O15305); assay: Counter screen SAR assay for PMM2 inhibitors via a fluorescence intensity assay. [Related pubchem assays (depositor defined):AID1545, AID1574]
[13] = target: Phosphoethanolamine/phosphocholine phosphatase (Homo sapiens, UniProt Q8TCT1); assay: SAR assay for compounds that inhibit PHOSPHO1. [Related pubchem assays (depositor defined):AID1545, AID1565, AID1574]
[14] = target: T7, Mannose-6-phosphate isomerase (Homo sapiens, UniProt P34949); assay: phosphomannose isomerase inhibition – biochemical, fluorescence intensity, confirmation (AID 1535)
T7 sequence (P34949 whole entry): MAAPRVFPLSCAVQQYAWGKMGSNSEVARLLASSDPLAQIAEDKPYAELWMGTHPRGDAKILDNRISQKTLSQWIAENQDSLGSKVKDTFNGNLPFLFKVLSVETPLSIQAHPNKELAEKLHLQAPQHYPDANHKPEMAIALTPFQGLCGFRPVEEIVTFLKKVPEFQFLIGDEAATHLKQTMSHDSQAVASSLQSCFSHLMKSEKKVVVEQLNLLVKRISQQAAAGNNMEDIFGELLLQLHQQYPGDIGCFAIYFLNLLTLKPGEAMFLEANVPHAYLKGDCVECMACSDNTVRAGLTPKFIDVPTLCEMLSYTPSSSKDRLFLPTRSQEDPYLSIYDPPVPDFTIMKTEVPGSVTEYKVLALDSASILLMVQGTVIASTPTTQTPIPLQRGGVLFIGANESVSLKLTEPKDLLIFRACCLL

Sequence of Phosphoethanolamine/phosphocholine phosphatase (Q8TCT1 whole entry): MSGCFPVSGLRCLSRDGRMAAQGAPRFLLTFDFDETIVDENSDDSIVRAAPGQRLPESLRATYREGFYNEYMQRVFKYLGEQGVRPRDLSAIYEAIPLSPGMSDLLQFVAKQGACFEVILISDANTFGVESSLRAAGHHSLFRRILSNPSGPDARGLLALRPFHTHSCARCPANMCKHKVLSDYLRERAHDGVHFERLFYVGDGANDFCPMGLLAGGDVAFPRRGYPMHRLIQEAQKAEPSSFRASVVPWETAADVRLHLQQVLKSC
Sequence of Phosphomannomutase 2 (O15305 whole entry): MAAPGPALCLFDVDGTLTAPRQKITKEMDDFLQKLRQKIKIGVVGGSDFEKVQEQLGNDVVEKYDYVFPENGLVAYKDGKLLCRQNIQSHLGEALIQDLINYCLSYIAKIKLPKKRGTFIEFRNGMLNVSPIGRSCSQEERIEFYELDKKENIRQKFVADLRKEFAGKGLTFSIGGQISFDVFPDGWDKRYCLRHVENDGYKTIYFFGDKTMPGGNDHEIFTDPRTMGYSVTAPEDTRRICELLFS
Sequence of Induced myeloid leukemia cell differentiation protein Mcl-1 (Q07820 whole entry): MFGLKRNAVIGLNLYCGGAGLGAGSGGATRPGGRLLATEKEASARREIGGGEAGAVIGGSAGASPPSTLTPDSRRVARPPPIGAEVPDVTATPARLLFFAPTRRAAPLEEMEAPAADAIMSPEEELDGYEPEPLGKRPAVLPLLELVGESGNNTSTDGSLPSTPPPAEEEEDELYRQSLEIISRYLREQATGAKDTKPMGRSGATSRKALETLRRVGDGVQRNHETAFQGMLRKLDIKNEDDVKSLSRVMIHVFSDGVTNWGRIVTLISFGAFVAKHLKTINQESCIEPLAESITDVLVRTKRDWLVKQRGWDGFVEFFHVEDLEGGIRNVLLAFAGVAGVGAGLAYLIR
Sequence of Intestinal-type alkaline phosphatase (Homo sapiens, UniProt P09923) (P09923 whole entry): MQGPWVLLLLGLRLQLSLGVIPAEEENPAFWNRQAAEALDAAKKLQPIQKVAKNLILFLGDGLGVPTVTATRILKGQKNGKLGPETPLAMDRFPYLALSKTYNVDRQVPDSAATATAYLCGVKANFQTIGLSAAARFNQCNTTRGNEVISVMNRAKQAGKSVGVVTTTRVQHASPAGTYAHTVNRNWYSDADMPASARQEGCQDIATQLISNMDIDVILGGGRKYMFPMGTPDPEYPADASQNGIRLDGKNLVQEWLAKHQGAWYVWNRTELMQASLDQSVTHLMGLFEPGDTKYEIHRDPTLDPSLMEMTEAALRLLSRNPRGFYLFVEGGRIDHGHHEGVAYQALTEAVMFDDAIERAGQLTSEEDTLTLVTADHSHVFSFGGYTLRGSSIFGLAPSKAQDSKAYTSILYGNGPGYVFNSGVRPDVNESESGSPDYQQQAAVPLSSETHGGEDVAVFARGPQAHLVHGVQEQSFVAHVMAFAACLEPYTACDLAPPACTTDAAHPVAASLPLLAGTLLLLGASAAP
Sequence of Glyceraldehyde-3-phosphate dehydrogenase (P04406 whole entry): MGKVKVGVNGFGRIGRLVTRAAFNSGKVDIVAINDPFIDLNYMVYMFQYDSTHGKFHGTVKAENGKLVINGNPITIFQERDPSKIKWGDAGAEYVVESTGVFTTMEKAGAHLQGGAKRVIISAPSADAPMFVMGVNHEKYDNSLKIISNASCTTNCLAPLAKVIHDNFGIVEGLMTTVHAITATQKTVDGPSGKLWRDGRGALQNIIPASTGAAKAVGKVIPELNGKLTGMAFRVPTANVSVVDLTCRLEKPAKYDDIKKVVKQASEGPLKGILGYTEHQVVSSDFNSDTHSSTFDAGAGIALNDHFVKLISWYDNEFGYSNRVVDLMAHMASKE
Sequence of Tyrosine-protein phosphatase non-receptor type 12 (Q05209 whole entry): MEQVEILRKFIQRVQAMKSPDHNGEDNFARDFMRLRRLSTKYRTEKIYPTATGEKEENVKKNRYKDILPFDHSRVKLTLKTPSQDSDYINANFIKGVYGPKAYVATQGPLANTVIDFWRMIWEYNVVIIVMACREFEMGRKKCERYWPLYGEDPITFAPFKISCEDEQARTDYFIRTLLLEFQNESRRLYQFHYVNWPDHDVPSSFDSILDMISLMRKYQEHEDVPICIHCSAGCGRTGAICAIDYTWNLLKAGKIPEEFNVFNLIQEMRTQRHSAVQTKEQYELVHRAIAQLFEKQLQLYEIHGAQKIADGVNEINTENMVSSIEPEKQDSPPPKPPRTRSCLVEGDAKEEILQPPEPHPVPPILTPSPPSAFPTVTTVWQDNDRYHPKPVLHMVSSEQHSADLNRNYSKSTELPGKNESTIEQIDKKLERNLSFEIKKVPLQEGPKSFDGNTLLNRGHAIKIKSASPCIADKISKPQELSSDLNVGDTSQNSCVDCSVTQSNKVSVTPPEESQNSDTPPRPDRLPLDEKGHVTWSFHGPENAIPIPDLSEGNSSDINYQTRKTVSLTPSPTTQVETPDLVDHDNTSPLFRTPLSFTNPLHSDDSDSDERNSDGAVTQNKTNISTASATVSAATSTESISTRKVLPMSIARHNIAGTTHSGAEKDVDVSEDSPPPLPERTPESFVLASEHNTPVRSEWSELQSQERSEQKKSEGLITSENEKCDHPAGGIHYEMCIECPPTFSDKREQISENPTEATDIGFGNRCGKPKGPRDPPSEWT
Sequence of ORF 73 (O40947 whole entry): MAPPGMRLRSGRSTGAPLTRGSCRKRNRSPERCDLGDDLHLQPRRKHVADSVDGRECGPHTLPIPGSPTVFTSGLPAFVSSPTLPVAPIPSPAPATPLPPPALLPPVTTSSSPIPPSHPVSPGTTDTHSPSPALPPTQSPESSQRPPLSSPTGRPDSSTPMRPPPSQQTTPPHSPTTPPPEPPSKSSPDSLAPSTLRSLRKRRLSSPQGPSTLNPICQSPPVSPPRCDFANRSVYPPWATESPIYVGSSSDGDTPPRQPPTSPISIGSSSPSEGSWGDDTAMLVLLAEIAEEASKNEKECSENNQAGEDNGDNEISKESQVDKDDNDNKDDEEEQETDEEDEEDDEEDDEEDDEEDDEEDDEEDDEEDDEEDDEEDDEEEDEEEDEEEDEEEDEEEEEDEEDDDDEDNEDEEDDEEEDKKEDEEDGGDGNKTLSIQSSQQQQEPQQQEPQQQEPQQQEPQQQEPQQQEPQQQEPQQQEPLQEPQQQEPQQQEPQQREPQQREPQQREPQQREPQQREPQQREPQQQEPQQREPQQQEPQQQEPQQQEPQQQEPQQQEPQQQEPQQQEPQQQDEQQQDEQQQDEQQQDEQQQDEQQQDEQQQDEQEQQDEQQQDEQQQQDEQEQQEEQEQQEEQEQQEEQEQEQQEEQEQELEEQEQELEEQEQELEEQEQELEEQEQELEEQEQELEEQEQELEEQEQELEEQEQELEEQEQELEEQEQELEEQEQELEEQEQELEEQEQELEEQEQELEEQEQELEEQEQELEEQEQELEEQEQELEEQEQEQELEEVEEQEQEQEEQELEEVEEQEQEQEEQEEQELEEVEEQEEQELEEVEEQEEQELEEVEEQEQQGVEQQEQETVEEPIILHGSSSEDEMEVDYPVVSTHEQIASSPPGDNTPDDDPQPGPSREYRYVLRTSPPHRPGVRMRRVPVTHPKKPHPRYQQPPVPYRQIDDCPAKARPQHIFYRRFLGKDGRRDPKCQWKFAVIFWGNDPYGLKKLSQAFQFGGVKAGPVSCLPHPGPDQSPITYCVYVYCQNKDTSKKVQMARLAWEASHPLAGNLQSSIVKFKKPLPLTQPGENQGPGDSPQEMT
Sequence of Likely tRNA 2'-phosphotransferase (Q5A7N4 whole entry): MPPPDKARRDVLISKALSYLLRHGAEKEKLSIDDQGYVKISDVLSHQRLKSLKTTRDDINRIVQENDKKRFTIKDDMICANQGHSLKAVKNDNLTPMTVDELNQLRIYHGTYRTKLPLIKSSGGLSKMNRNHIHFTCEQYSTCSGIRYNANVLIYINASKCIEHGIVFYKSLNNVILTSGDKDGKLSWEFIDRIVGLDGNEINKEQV
Sequence of Trypsin (P00761 whole entry): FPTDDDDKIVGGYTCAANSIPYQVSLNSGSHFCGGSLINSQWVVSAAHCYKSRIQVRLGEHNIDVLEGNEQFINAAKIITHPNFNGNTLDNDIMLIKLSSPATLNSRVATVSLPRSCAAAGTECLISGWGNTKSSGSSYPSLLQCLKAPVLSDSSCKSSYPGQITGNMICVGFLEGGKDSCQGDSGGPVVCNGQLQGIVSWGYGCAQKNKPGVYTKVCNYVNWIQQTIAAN
Sequence of Intestinal-type alkaline phosphatase (Mus musculus, UniProt P24822) (P24822 whole entry): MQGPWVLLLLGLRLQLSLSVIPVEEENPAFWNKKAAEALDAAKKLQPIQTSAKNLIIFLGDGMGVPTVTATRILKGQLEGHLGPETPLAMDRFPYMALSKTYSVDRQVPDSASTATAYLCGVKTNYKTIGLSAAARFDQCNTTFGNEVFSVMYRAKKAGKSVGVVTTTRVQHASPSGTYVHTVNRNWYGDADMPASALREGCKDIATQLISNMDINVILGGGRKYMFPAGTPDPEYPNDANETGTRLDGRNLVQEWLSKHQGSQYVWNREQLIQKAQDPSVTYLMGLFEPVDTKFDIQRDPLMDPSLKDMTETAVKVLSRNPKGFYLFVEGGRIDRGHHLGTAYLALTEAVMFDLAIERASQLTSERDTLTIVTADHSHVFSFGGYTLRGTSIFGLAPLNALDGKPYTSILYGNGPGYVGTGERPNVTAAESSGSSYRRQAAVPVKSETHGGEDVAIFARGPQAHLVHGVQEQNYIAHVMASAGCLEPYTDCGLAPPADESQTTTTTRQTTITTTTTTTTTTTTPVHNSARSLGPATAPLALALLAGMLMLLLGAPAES
Sequence of Guanyl-specific ribonuclease T1 (P00651 whole entry): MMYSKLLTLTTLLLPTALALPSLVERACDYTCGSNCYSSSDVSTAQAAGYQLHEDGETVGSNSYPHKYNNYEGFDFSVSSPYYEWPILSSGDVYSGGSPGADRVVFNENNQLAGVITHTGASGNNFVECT
Sequence of Phospholipase A2 (P04054 whole entry): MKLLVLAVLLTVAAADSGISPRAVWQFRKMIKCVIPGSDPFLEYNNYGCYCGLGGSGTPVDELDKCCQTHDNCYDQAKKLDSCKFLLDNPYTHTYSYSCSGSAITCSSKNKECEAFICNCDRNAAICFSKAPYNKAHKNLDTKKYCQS

O=C(O)c1ccc(-c2ccc(/C=C3\SC(=S)N(c4ccc([N+](=O)[O-])cc4)C3=O)o2)cc1
IC50 [1]: > 100 µM (not active) | IC50 [2]: 0.821 µM (active) | IC50 [3]: 0.216 µM (active) | IC50 [4]: 0.602 µM (active)

O=C1/C(=C/C=C/c2ccco2)SC(=S)N1NS(=O)(=O)c1ccccc1
EC50 [5]: 3.13 µM (active) | EC50 [6]: > 100 µM (inactive) | IC50 (Phospholipase A2): 13 µM (active) | EC50 [7]: > 100 µM (inactive) | IC50 (Cysteine protease ATG4B): 7.13 µM (active) | IC50 [8]: 49.6 µM (active) | IC50 (Aminopeptidase N): 22.6 µM (active) | IC50 [9]: 20.8 µM (not active) | AC50 (HeLa): > 350 µM (inactive) | IC50 [10]: 3.1 µM (active) | IC50 [11]: 18.5 µM (not active) | IC50 [12]: 8.28 µM (not active) | AC50 (ORF 73): 177 µM (active) | IC50 (Large T antigen): 25.4 µM (active)

CCn1cc(C(=O)NCCO)c(=O)c2cc(F)c(N3CCN(C)CC3)cc21
AC50 (Trypsin): 39.2 µM (active)

O=c1c2ccc([N+](=O)[O-])cc2sn1-c1ccccc1
IC50 (Hexokinase): 11.6 µM (active) | IC50 (Phosphomannomutase 2): > 100 µM (inactive) | IC50 [13]: 4.23 µM (inactive) | IC50 [14]: > 50 µM (inactive)
